The values below come from patent publication US20120322768A1, “COMPOUNDS, COMPOSITIONS AND METHODS FOR TREATING PROTOZOAN INFECTIONS” (QUEEN MARY & WESTFIELD COLLEGE, priority 2009, published 2012).

Like-named read-outs stand apart in the source and are kept apart here.

Data set [1] has as its system bloodstream form T. brucei. In words: microbe, parasite or virus in culture. It is filed as cell-based. The following applies: Trypanosoma brucei.
The subject of another data set is THP-1 cells. The data set can be described thus: cells. The following applies: Homo sapiens, THP-1, 144 h, read-out: IC50 THP1.
Data set [2] relates to intracellular form T. cruzi. In words: microbe, parasite or virus in culture. It is filed as cell-based. The following applies: Trypanosoma cruzi, Vero, 72 h, read-out: IC50 T. cruzi.
Data set [3] relates to insect form Leishmania major. The data set can be described thus: microbe, parasite or virus in culture. The data set is classed as cell-based. The following applies: 144 h, read-out: IC50 L. major.
The next data set concerns Vero cells. In words: cells. The data set is classed as cell-based. The following applies: Chlorocebus sabaeus, read-out: IC50 Vero cells.
Data set [4] is described as follows: Stability in phosphate buffer (HPLC). The data set is classed as physicochemical. The following applies: pH 7.4, 100 mM phosphate buffer, three-day incubation at 37° C., 100 μM. Here is the method:
(§1) Select nitrobenzyl phosphoramide mustards (100 μM) were incubated in pH 7.4 100 mM phosphate buffer or in whole human blood at 37° C. Aliquots were withdrawn at different time intervals and mixed with acetonitrile (1-1 for phosphate buffer and 1-5 for whole blood). The samples were centrifuged and analyzed by HPLC.

The nature of data set [5]: Stability in whole human blood (HPLC). It is filed as in vitro ADME. The following applies: three-day incubation at 37° C., 100 μM. On the procedure: as §1
Substrate in data set [6]: CC1CS(=O)(=O)CCN1/N=C/c1ccc([N+](=O)[O-])o1
In words: TbNTR enzyme activity by NADH oxidation (absorbance at 340 nm). The data set is classed as biochemical, T. brucei. The following applies: other: apparent; NADH 100 μM, substrate 2-75 μM.

Setting [7] is: 72 h, read-out: IC50 T. bruccei.
[8] abbreviates: read-out: IC50 against bloodstream form T. brucei.

Regarding `Nc1nc(N)nc(Nc2ccc([As]3SCC(CO)S3)cc2)n1` (centres unmarked) [melarsoprol, reference compound], the half-maximal inhibitory concentration (IC50) in data set [1] (read-out: drug sensitivity (IC50)) was approximately 4 µM.

As for `CC1CS(=O)(=O)CCN1/N=C/c1ccc([N+](=O)[O-])o1` (centres unmarked) [Nifurtimox, reference compound], the IC50 with THP-1 cells was 64.8 ± 1.5 µM.

Regarding `NP(=O)(OCc1ccc([N+](=O)[O-])cc1C(F)(F)F)N(CCCl)CCCl` (centres unmarked) [LH33, 2-Trifluoromethyl-4-nitrobenzyl phosphoramide mustard], the concentration for half-maximal inhibition (IC50) in data set [2] was 7.97 ± 1.13 µM; with THP-1 cells, 19 ± 1.9 µM; in data set [3] it was 5.88 ± 0.28 µM; in the data set with Vero cells, more than 100 µM; in data set [1] (setting [7]), 0.149 ± 0.02 µM; in data set [1] (setting [8]), 0.149 ± 0.02 µM.

As for `NP(=O)(OCc1c(F)cc([N+](=O)[O-])cc1F)N(CCCl)CCCl` (centres unmarked) [LH37, 2,6-Difluoro-4-nitrobenzyl phosphoramide mustard], the “Stability in phosphate buffer” value in data set [4] is “completely stable”. Also, the IC50 is 0.99 ± 0.01 µM in data set [2]; 6.9 µM in the data set on THP-1 cells; 1.29 ± 0.08 µM in data set [3]; more than 100 µM in the data set on Vero cells; 0.007 µM in data set [1] (setting [7]); less than 0.01 µM in data set [1] (setting [8]). Further, in data set [5], the “Stability in human whole blood” value was “completely stable”.

Turning to `NP(=O)(OCc1ccc([N+](=O)[O-])cc1Cl)N(CCCl)CCCl` (centres unmarked) [LH34, 2-Chloro-4-nitrobenzyl phosphoramide mustard], the “Stability in phosphate buffer” value in data set [4] is given as “stable”. Besides, the IC50 in data set [2] is 9.14 ± 0.54 µM; with THP-1 cells, 10 ± 1.2 µM; in data set [3], 3.1 ± 0.28 µM; in the data set on Vero cells, more than 100 µM; in data set [1] (setting [7]) it was 0.008 ± 0.001 µM; in data set [1] (setting [8]), less than 0.01 µM. Moreover, in data set [5], the “change in peak area in whole human blood” value was “less than 30%”.

`NP(=O)(OCc1ccc([N+](=O)[O-])cc1)N(CCCl)CCCl` (centres unmarked) [LH7]: the IC50 with THP-1 cells is 66 ± 0.8 µM; in data set [1] (setting [7]) it was 3.4 ± 0.3 µM.

On to `NP(=O)(OCc1ccc([N+](=O)[O-])cc1F)N(CCCl)CCCl` (centres unmarked) [LH32, 2-Fluoro-4-nitrobenzyl phosphoramide mustard], for which the IC50 in data set [2] was 9.54 ± 0.27 µM; with THP-1 cells, 20.3 ± 1.8 µM; in data set [3], 4.72 ± 0.23 µM; with Vero cells it was more than 100 µM; in data set [1] (setting [7]), 0.268 ± 0.008 µM; in data set [1] (setting [8]), 0.268 ± 0.008 µM.

B1: T. brucei NTR (TbNTR) (Trypanosoma brucei brucei TREU927) (protein)
chain: DAFIRVVERRHSSKRFDSSRPVDHTLIARLLEATTRAPTAFNLQPWVAIVVHETSQRGALSHAALDQPQPREAPVTVVFAGDMEPEWRAPAALELGLNSGYYHPLYGAAYLRLVYYHLHGGPFGSMAKAKSCISSWYSNATGTPLLSVPTTMQGYAWKQAMIPATTFIYAATAAGLDTAILEGFDEAKVREVVGLPERYTVPVIISVGYKKADEQGKPPVRSPRFSTGSLVRWNRF
On to B1, for which, in data set [6], the Km amounted to 53.1 ± 15.2 µM, the maximum rate (Vmax) was found to be 0.423 µmol/min/mg and the kcat/Km turned out to be 3400 M⁻¹ s⁻¹.

Usually IC50 stands for the concentration that inhibits the measured activity by half. As usually defined, the Km is the substrate concentration at which the rate is half of its maximum. The Vmax is the top rate of the reaction or transport when substrate is in excess. One may read the kcat/Km as the turnover number divided by the Michaelis constant.
